The results in this text go back to ChEMBL document CHEMBL1136933 (J Med Chem, 2009).

SMILES strings stand for the structures. Where only a bound is given, the exact number is not on record here.

Common to all, as to format: functional, cell-based
The target in assay [1] is T1, Muscarinic acetylcholine receptor M1 (Rattus norvegicus) (UniProt P08482).
T1 sequence (whole entry): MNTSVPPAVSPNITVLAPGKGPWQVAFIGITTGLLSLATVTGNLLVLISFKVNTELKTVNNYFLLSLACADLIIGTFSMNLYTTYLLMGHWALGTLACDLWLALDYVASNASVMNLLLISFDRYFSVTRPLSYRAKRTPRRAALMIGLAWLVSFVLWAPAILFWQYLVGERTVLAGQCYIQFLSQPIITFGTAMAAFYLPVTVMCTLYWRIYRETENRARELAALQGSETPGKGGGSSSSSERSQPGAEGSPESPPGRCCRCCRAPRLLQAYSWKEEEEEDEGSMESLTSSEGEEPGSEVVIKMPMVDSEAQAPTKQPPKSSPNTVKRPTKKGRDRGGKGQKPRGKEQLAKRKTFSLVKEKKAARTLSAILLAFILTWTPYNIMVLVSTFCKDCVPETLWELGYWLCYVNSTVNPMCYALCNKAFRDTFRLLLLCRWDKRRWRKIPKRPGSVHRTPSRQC
Put plainly: Activation of rat muscarinic M1 receptor expressed in CHO cells co-expressing Gq protein assessed as potentiation of acetylcholine-induced intracellular Ca2+ mobilization at 30 uM relative to acetylcholine. (Calcium assays in cells follow changes in intracellular calcium, usually with a dye or a luminescent sensor.)

The target of assay [2] is T2, Muscarinic acetylcholine receptor M1 (Rattus norvegicus, UniProt P08482).
T2 sequence (P08482 whole entry): T1 sequence (whole entry)
Put plainly: Activation of rat muscarinic M1 receptor expressed in CHO cells co-expressing Gq protein assessed as potentiation of acetylcholine-induced intracellular Ca2+ mobilization.

For assay [3], the target named is T3, Muscarinic acetylcholine receptor M5 (Homo sapiens, UniProt P08912).
T3 sequence (P08912 whole entry): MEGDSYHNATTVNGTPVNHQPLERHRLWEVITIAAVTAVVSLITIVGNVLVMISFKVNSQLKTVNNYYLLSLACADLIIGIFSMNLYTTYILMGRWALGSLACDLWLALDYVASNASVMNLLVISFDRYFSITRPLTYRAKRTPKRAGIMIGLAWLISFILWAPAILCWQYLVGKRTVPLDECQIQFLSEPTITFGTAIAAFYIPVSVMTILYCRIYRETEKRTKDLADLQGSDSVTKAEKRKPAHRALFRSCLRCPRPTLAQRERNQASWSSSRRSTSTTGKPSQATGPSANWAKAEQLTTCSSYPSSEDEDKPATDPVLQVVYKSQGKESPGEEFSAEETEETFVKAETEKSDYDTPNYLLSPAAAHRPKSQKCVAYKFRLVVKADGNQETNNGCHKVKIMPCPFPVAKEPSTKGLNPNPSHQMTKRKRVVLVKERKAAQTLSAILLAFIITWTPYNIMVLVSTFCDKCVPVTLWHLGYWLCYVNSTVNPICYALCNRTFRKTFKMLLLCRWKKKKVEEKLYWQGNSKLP
Put plainly: Activation of human muscarinic M5 receptor expressed in CHO cells coexpressing Gq protein assessed as potentiation of acetylcholine-induced intracellular Ca2+ mobilization.

Assay [4] addresses T4, Muscarinic acetylcholine receptor M5 (Homo sapiens) (UniProt P08912).
T4 sequence (whole entry): T3 sequence (P08912 whole entry)
Put plainly: Activation of human muscarinic M5 receptor expressed in CHO cells coexpressing Gq protein assessed as potentiation of acetylcholine-induced intracellular Ca2+ mobilization at 30 uM relative to acetylcholine.

A word on the EC50: it is the concentration at which the effect is half-maximal. On to `O=C1C(=O)N(Cc2ccc(OC(F)(F)F)cc2)c2ccc(OC(F)(F)F)cc21`, for which the %max was 13.8% in assay [1] and 58.9% in assay [4]. The values for the EC50 in assay [2] and in assay [3] were more than 30 µM and 1.86 µM, respectively.
For `COc1ccc(CN2C(=O)C(=O)c3ccccc32)cc1`, the %max was 43.6% in assay [1] and 29.2% in assay [4]. The values for the EC50 in assay [2] and in assay [3] were more than 10 µM and more than 30 µM, respectively.
Turning to `O=C1C(=O)N(Cc2ccc(C(F)(F)F)cc2)c2ccc(OC(F)(F)F)cc21`, the %max in assay [1] amounted to 25.7%; in assay [4] it was 67.2%. Moreover, the values for the EC50 in assay [2] and in assay [3] were 7.09 µM and 1.85 µM, respectively.
Consider `O=C1C(=O)N(Cc2ccc(C(F)(F)F)cc2)c2ccccc21`, for which, in assay [3], the EC50 turned out to be 3.19 µM.
In the case of `O=C1C(=O)N(Cc2ccccc2C(F)(F)F)c2ccc(F)cc21`, the %max in assay [1] was determined as 47.8%; in assay [4], 36.1%. For the same molecule, the EC50 is 6.21 µM in assay [2] and 4.09 µM in assay [3].
`O=C1C(=O)N(Cc2ccc(Br)cc2)c2c(F)cccc21`: the %max in assay [1] worked out at 62.7%; in assay [4], 51.7%. Moreover, the EC50 in assay [2] was determined as 3.99 µM; in assay [3] it was 1.93 µM.
Taken in the same sequence, the figures for `COc1ccc(CN2C(=O)C(=O)c3cccc(Cl)c32)cc1` were 49.4%, 30.3%, 5.38 µM and 3.96 µM.
On to `Cc1ccccc1CN1C(=O)C(=O)c2cc(OC(F)(F)F)ccc21`, for which the %max in assay [1] came out at 26.2%; in assay [4], 60%. The EC50 was more than 30 µM in assay [2] and 3.28 µM in assay [3].
For the molecule `O=C1C(=O)N(Cc2ccc(Br)cc2F)c2c(Cl)cccc21`, the EC50 in assay [3] came to 4.66 µM.
For `O=C1C(=O)N(Cc2ccc(Br)cc2F)c2ccc(OC(F)(F)F)cc21`, the %max was found to be 11.6% in assay [1] and 36.4% in assay [4]. Moreover, the EC50 in assay [2] was more than 30 µM; in assay [3], more than 10 µM.
In the case of `O=C1C(=O)N(Cc2ccc(Br)cc2)c2c(Cl)ccc(Cl)c21`, the %max turned out to be 12.1% in assay [1] and 20.7% in assay [4].
Regarding `COc1cccc(CN2C(=O)C(=O)c3cc(OC(F)(F)F)ccc32)c1`, the results for the %max in assay [1] and in assay [4] were 28.6% and 70.1%, respectively. Also, the half-maximal effective concentration (EC50) was more than 30 µM in assay [2] and 1.7 µM in assay [3].
On to `O=C1C(=O)N(Cc2c(F)cccc2F)c2c(F)cccc21`, for which the %max was 33.1% in assay [1] and 25.1% in assay [4].
Taken in the same sequence, the figures for `O=C1C(=O)N(Cc2ccc(OC(F)(F)F)cc2)c2ccc(Cl)cc21` were 31.3% and 47.1%.
In the same order, the values of `O=C1C(=O)N(Cc2ccccc2F)c2ccc(Cl)cc21` are 23% and 36.3%.
With `O=C1C(=O)N(Cc2c(F)cccc2F)c2ccc(OC(F)(F)F)cc21`, the %max in assay [1] was 13.6%; in assay [4], 29.8%.
Take `O=C1C(=O)N(Cc2ccc(F)cc2F)c2c(Cl)cccc21`: the %max turned out to be 64.6% in assay [1] and 61.6% in assay [4].
Consider `O=C1C(=O)N(Cc2ccccc2Cl)c2ccc(F)cc21`, for which the results for the %max in assay [1] and in assay [4] were 41.4% and 39.9%, respectively.
As for `COc1cccc(CN2C(=O)C(=O)c3cc(Cl)ccc32)c1`, the %max in assay [1] was determined as 16.9%; in assay [4], 27.9%.
For `Cc1ccc2c(c1)C(=O)C(=O)N2Cc1ccc(OC(F)(F)F)cc1`, the %max is 13.8% in assay [1] and 18.9% in assay [4].
Consider `Cc1ccccc1CN1C(=O)C(=O)c2cc(Cl)ccc21`, for which the %max in assay [1] was found to be 27.6%; in assay [4], 47.3%.
In the case of `O=C1C(=O)N(Cc2ccc(C(F)(F)F)cc2)c2c(F)cccc21`, the %max amounted to 60.9% in assay [1] and 71.1% in assay [4]. The concentration giving a half-maximal response (EC50) in assay [2] is 5.18 µM; in assay [3], 3.26 µM.
As to `Cc1cccc2c1N(Cc1ccccc1F)C(=O)C2=O`, the %max in assay [1] worked out at 24.9%; in assay [4], 24.6%.
With `O=C1C(=O)N(Cc2ccccc2C(F)(F)F)c2ccc(Cl)cc21`, the %max in assay [1] came to 29.6%; in assay [4] it was 48.4%.
Taken in the same sequence, the figures for `O=C1C(=O)N(Cc2ccc(F)cc2F)c2ccc(Cl)cc21` were 32.4% and 44.9%.
In the same order, the values of `Cc1ccccc1CN1C(=O)C(=O)c2cccc(F)c21` are 30.2% and 27.5%.
`COc1ccc(CN2C(=O)C(=O)c3cccc(F)c32)cc1`: the %max was determined as 54.6% in assay [1] and 44.4% in assay [4].
Consider `O=C1C(=O)N(Cc2ccc(F)cc2F)c2ccccc21`, for which the figures for the %max in assay [1] and in assay [4] were 44.8% and 40.4%, respectively.
On to `O=C1C(=O)N(Cc2ccccc2C(F)(F)F)c2c(F)cccc21`, for which the %max stood at 41.3% in assay [1] and 30.9% in assay [4]. For the same molecule, the EC50 in assay [2] and in assay [3] was more than 30 µM in each case.
For `O=C1C(=O)N(Cc2ccccc2Cl)c2ccc(OC(F)(F)F)cc21`, the %max in assay [1] is 12.3%; in assay [4] it was 51.9%. The figures for the EC50 in assay [2] and in assay [3] were more than 30 µM and 4.07 µM, respectively.
As for `O=C1C(=O)N(Cc2c(F)cccc2F)c2ccccc21`, the %max in assay [1] amounted to 36.6%; in assay [4], 17.4%.
As for `O=C1C(=O)N(Cc2ccc(Br)cc2F)c2ccc(Cl)cc21`, the values for the %max in assay [1] and in assay [4] were 29.9% and 30.4%, respectively.
As for `COc1cccc(CN2C(=O)C(=O)c3c(Cl)ccc(Cl)c32)c1`, the figures for the %max in assay [1] and in assay [4] were 13.3% and 35.1%, respectively. Moreover, the EC50 in assay [2] was more than 30 µM; in assay [3], 7.15 µM.
In the case of `Cc1cccc2c1N(Cc1ccc(F)cc1F)C(=O)C2=O`, the %max is 32.6% in assay [1] and 33.8% in assay [4].
